The values that follow come from article PMC4844176 (Xenobiotica; the fate of foreign compounds in biological …, 2015).

Data set [1] has as its target T1, UGT1A4 (Homo sapiens, UniProt P22310).
T1 sequence (P22310 29-534): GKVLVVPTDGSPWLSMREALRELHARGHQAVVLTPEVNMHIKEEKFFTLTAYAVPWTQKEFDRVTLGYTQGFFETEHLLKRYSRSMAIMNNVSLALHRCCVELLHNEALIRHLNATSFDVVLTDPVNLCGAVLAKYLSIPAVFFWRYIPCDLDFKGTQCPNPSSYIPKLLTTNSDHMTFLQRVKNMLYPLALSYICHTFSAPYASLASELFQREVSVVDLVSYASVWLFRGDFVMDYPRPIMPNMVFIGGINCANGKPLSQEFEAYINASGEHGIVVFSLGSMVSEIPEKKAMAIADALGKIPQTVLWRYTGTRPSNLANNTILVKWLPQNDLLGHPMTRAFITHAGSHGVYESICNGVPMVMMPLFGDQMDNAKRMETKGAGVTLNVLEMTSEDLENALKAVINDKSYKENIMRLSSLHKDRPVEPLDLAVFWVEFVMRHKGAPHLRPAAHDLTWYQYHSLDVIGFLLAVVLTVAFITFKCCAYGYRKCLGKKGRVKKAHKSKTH
To be noted: pH 7.5; for velocity of AP-G formation: 60 min.

The target in data set [2] is T2, UGT2B7 (Homo sapiens, UniProt P16662).
T2 sequence (P16662 24-529): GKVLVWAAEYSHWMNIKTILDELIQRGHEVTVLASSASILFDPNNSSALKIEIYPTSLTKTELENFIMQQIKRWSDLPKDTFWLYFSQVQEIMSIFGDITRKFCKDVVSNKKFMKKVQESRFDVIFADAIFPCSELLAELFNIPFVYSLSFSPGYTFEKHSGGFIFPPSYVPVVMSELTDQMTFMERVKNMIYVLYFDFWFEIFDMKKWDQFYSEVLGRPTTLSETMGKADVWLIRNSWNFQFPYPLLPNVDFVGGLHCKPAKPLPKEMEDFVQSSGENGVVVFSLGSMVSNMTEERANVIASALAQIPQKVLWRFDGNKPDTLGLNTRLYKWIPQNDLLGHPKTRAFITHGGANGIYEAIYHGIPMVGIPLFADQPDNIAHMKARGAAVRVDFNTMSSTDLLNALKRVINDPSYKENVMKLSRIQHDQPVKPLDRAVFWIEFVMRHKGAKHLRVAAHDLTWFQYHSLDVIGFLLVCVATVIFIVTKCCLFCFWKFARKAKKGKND
Description: Screening for aprepitant glucuronidation, UGT2B7 Supersomes. It is filed as in vitro ADME. To be noted: UGT2B7, 5 and 250 µM aprepitant.

For data set [3], the target named is T3, UGT2B4 (Homo sapiens, UniProt P06133).
T3 sequence (P06133 24-528): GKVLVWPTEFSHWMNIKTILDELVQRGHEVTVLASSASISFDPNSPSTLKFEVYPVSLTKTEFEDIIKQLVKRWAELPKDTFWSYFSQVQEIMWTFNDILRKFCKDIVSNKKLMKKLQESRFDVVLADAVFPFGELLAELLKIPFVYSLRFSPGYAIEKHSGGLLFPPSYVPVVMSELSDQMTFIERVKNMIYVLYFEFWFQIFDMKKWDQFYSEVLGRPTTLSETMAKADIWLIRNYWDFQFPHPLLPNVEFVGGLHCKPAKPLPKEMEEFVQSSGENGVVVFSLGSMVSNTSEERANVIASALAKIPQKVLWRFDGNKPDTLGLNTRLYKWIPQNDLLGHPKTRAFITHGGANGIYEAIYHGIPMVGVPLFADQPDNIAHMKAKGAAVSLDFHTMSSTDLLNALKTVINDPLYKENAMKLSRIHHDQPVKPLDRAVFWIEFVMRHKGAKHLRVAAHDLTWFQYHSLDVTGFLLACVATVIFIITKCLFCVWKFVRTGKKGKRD
Put plainly: Screening for aprepitant glucuronidation, UGT2B4 Supersomes. To be noted: UGT2B4, 5 and 250 µM aprepitant. In kind it is in vitro ADME.

Data set [4] relates to other UGTs. Put plainly: Inhibition by aprepitant of other UGTs. In kind it is in vitro ADME, human. The conditions noted are these: 1 µM aprepitant, UGTs other than UGT2B7.
In data set [5] the target is T4, UGT1A7 (Homo sapiens, UniProt Q9HAW7).
T4 sequence (Q9HAW7 26-530): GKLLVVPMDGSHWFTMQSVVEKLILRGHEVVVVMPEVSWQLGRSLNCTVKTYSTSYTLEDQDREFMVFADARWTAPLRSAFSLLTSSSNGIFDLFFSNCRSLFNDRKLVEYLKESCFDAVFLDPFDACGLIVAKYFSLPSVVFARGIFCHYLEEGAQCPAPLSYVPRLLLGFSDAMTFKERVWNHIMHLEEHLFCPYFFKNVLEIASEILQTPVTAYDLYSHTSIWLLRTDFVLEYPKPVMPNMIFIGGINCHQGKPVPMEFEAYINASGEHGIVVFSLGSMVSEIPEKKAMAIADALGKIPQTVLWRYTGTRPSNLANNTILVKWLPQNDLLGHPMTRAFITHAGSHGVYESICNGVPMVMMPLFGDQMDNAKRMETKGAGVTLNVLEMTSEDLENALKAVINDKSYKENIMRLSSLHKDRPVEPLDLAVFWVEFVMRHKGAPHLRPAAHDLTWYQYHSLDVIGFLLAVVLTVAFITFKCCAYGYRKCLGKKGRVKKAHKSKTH
Put plainly: Inhibition by aprepitant of UGT1A7. To be noted: UGT1A7 enzyme, pH 7.5, probe 4-MU. It is filed as in vitro ADME.

Data set [6] deals with T1, UGT1A4. Put plainly: Inhibition by aprepitant of UGT1A4. It is filed as in vitro ADME. The conditions noted are these: UGT1A4 enzyme, probe imipramine.
Data set [7] concerns the target T5, UGT2B15 (Homo sapiens, UniProt P54855).
T5 sequence (P54855 24-530): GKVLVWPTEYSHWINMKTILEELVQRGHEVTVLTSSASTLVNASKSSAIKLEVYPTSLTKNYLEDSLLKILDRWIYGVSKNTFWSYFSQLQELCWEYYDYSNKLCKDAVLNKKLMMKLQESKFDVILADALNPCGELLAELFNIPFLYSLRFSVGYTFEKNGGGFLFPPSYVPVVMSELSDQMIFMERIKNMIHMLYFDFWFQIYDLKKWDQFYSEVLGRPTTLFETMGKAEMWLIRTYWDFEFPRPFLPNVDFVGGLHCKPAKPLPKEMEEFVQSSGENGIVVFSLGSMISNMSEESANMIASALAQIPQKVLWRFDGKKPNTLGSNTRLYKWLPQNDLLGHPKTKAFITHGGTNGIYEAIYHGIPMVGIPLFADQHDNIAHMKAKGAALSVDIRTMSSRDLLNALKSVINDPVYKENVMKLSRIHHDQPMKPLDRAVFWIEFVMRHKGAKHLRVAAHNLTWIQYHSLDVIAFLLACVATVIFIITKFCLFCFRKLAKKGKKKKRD
Description: Screening for aprepitant glucuronidation, UGT2B15 Supersomes. It is filed as in vitro ADME. The conditions noted are these: UGT2B15, 5 and 250 µM aprepitant.

For data set [8] the following is noted: ref Merck 2003; cited from earlier work.

Molecules are shown by their SMILES. Like-named read-outs stand apart in the source and are kept apart here. Some results are limits rather than exact numbers.

Regarding `C[C@@H](O[C@H]1OCCN(Cc2n[nH]c(=O)[nH]2)[C@H]1c1ccc(F)cc1)c1cc(C(F)(F)F)cc(C(F)(F)F)c1` [aprepitant, Aprepitant], the figures for the “velocity of AP-G formation” value in data set [1] (5 µM) and in data set [1] (250 µM) were 124.6 ± 6.4 fmol/min/mg protein and 2,710 ± 157.2 fmol/min/mg protein, respectively. Also, in data set [1] (recombinant enzyme), the CLint was 28 µl/min/µg protein. Moreover, the AP-G formation result in data set [2], in data set [3] and in data set [7] was “not detected” throughout. Moreover, the “inhibition of other UGTs” value in data set [4] was below 10%. The inhibition (as a rule, the drop in the measured response relative to a control, in per cent) at 10 µM in data set [5] came out at 17%. This molecule also gave an inhibition at 60 min, 10 µM in data set [6] of 18%. In data set [8], the “mean absolute oral bioavailability” value was 60–65%.
